Data: PubChem BioAssay (NCI)
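Method: 48-hour compound exposure of cells in 96-well plates, five concentrations, linear interpolation of endpoints. The concentration for full growth arrest is given as TGI.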

Legend:
Test in all cases: inhibition of tumour cell growth, NCI panel, 48 h
786-0 renal = test system: 786-0 renal
A498 renal = test system: A498 renal
A549 NSCLC = test system: A549 NSCLC
ACHN renal = test system: ACHN renal
BT-549 breast = test system: BT-549 breast
CAKI-1 renal = test system: CAKI-1 renal
CCRF-CEM leukemia = test system: CCRF-CEM leukemia
COLO 205 colon = test system: COLO 205 colon
DU-145 prostate = test system: DU-145 prostate
EKVX NSCLC = test system: EKVX NSCLC
HCC-2998 colon = test system: HCC-2998 colon
HCT-116 colon = test system: HCT-116 colon
HCT-15 colon = test system: HCT-15 colon
HL-60(TB) leukemia = test system: HL-60(TB) leukemia
HOP-62 NSCLC = test system: HOP-62 NSCLC
HOP-92 NSCLC = test system: HOP-92 NSCLC
HS 578T breast = test system: HS 578T breast
HT29 colon = test system: HT29 colon
IGROV1 ovarian = test system: IGROV1 ovarian
K-562 leukemia = test system: K-562 leukemia
KM12 colon = test system: KM12 colon
LOX IMVI melanoma = test system: LOX IMVI melanoma
M14 melanoma = test system: M14 melanoma
MALME-3M melanoma = test system: MALME-3M melanoma
MCF7 breast = test system: MCF7 breast
MDA-MB-231 breast = test system: MDA-MB-231 breast
MDA-MB-435 = test system: MDA-MB-435
MDA-N = test system: MDA-N
MOLT-4 leukemia = test system: MOLT-4 leukemia
NCI-H226 lung = test system: NCI-H226 lung
NCI-H23 lung = test system: NCI-H23 lung
NCI-H460 lung = test system: NCI-H460 lung
NCI-H522 lung = test system: NCI-H522 lung
NCI/ADR-RES ovarian = test system: NCI/ADR-RES ovarian
OVCAR-3 ovarian = test system: OVCAR-3 ovarian
OVCAR-4 ovarian = test system: OVCAR-4 ovarian
OVCAR-5 ovarian = test system: OVCAR-5 ovarian
OVCAR-8 ovarian = test system: OVCAR-8 ovarian
PC-3 prostate = test system: PC-3 prostate
RPMI-8226 leukemia = test system: RPMI-8226 leukemia
RXF 393 renal = test system: RXF 393 renal
SF-268 CNS = test system: SF-268 CNS
SF-295 CNS = test system: SF-295 CNS
SF-539 CNS = test system: SF-539 CNS
SK-MEL-2 melanoma = test system: SK-MEL-2 melanoma
SK-MEL-28 melanoma = test system: SK-MEL-28 melanoma
SK-MEL-5 melanoma = test system: SK-MEL-5 melanoma
SK-OV-3 ovarian = test system: SK-OV-3 ovarian
SN12C renal = test system: SN12C renal
SNB-19 CNS = test system: SNB-19 CNS
SNB-75 CNS = test system: SNB-75 CNS
SR leukemia = test system: SR leukemia
SW-620 colon = test system: SW-620 colon
T-47D breast = test system: T-47D breast
TK-10 renal = test system: TK-10 renal
U251 CNS = test system: U251 CNS
UACC-257 melanoma = test system: UACC-257 melanoma
UACC-62 melanoma = test system: UACC-62 melanoma
UO-31 renal = test system: UO-31 renal

**Q.** `COc1ccc(-c2nc3ccc(C)cc3o2)c(OC)c1` was tested. Which TGI (786-0 renal) did it give?
**A.** 41.7 µM

**Q.** And the TGI (A498 renal)?
**A.** 46.5 µM

**Q.** What about the TGI (A549 NSCLC) of the same molecule?
**A.** > 67.4 µM

**Q.** And the TGI (ACHN renal)?
**A.** > 100 µM

**Q.** And the TGI (BT-549 breast)?
**A.** 67.1 µM

**Q.** What about the TGI (CAKI-1 renal) of the same molecule?
**A.** 76.1 µM

**Q.** And the TGI (CCRF-CEM leukemia)?
**A.** 65.8 µM

**Q.** What about the TGI (COLO 205 colon) of the same molecule?
**A.** 40.7 µM

**Q.** And the TGI (DU-145 prostate)?
**A.** 50.5 µM

**Q.** What about the TGI (EKVX NSCLC) of the same molecule?
**A.** 63 µM

**Q.** What about the TGI (HCC-2998 colon) of the same molecule?
**A.** 45.8 µM

**Q.** And the TGI (HCT-116 colon)?
**A.** 35.8 µM

**Q.** What about the TGI (HCT-15 colon) of the same molecule?
**A.** 58.8 µM

**Q.** What about the TGI (HL-60(TB) leukemia) of the same molecule?
**A.** 50 µM

**Q.** And the TGI (HOP-62 NSCLC)?
**A.** > 56 µM

**Q.** What about the TGI (HOP-92 NSCLC) of the same molecule?
**A.** > 66.8 µM

**Q.** What about the TGI (HS 578T breast) of the same molecule?
**A.** 71.4 µM

**Q.** What about the TGI (HT29 colon) of the same molecule?
**A.** 30.2 µM

**Q.** And the TGI (IGROV1 ovarian)?
**A.** 76.3 µM

**Q.** What about the TGI (K-562 leukemia) of the same molecule?
**A.** > 64.5 µM

**Q.** And the TGI (KM12 colon)?
**A.** 40.4 µM

**Q.** And the TGI (LOX IMVI melanoma)?
**A.** 31 µM

**Q.** What about the TGI (M14 melanoma) of the same molecule?
**A.** 35.7 µM

**Q.** What about the TGI (MALME-3M melanoma) of the same molecule?
**A.** 42.1 µM

**Q.** And the TGI (MCF7 breast)?
**A.** > 100 µM

**Q.** What about the TGI (MDA-MB-231 breast) of the same molecule?
**A.** 50.5 µM

**Q.** What about the TGI (MDA-MB-435) of the same molecule?
**A.** 52.9 µM

**Q.** And the TGI (MDA-N)?
**A.** 64.4 µM

**Q.** What about the TGI (MOLT-4 leukemia) of the same molecule?
**A.** 52.9 µM

**Q.** What about the TGI (NCI-H226 lung) of the same molecule?
**A.** 79.1 µM

**Q.** What about the TGI (NCI-H23 lung) of the same molecule?
**A.** 87.5 µM

**Q.** What about the TGI (NCI-H460 lung) of the same molecule?
**A.** 65.6 µM

**Q.** And the TGI (NCI-H522 lung)?
**A.** 39.2 µM

**Q.** And the TGI (NCI/ADR-RES ovarian)?
**A.** 99.9 µM

**Q.** What about the TGI (OVCAR-3 ovarian) of the same molecule?
**A.** 46.9 µM

**Q.** What about the TGI (OVCAR-4 ovarian) of the same molecule?
**A.** 74.1 µM

**Q.** What about the TGI (OVCAR-5 ovarian) of the same molecule?
**A.** 42 µM

**Q.** What about the TGI (OVCAR-8 ovarian) of the same molecule?
**A.** 77.1 µM

**Q.** What about the TGI (PC-3 prostate) of the same molecule?
**A.** 67.1 µM

**Q.** What about the TGI (RPMI-8226 leukemia) of the same molecule?
**A.** 49.1 µM

**Q.** What about the TGI (RXF 393 renal) of the same molecule?
**A.** 53.8 µM

**Q.** What about the TGI (SF-268 CNS) of the same molecule?
**A.** 77.4 µM

**Q.** What about the TGI (SF-295 CNS) of the same molecule?
**A.** 46.8 µM

**Q.** What about the TGI (SF-539 CNS) of the same molecule?
**A.** 40.9 µM

**Q.** What about the TGI (SK-MEL-2 melanoma) of the same molecule?
**A.** 71.7 µM

**Q.** And the TGI (SK-MEL-28 melanoma)?
**A.** > 100 µM

**Q.** And the TGI (SK-MEL-5 melanoma)?
**A.** 43.3 µM

**Q.** What about the TGI (SK-OV-3 ovarian) of the same molecule?
**A.** > 100 µM

**Q.** And the TGI (SN12C renal)?
**A.** > 82.1 µM

**Q.** What about the TGI (SNB-19 CNS) of the same molecule?
**A.** 61.4 µM

**Q.** What about the TGI (SNB-75 CNS) of the same molecule?
**A.** 54.4 µM

**Q.** What about the TGI (SR leukemia) of the same molecule?
**A.** > 72.3 µM

**Q.** What about the TGI (SW-620 colon) of the same molecule?
**A.** > 86 µM

**Q.** What about the TGI (T-47D breast) of the same molecule?
**A.** > 96.1 µM

**Q.** What about the TGI (TK-10 renal) of the same molecule?
**A.** 76.5 µM

**Q.** And the TGI (U251 CNS)?
**A.** 65 µM

**Q.** What about the TGI (UACC-257 melanoma) of the same molecule?
**A.** 46.5 µM

**Q.** What about the TGI (UACC-62 melanoma) of the same molecule?
**A.** 70.2 µM

**Q.** And the TGI (UO-31 renal)?
**A.** 58.1 µM

**Q.** Which results are given for `CS(=O)(=O)C(=Cc1ccccc1Cl)S(C)(=O)=O`?
**A.** TGI (786-0 renal): > 100 µM; TGI (A498 renal): > 100 µM; TGI (A549 NSCLC): > 100 µM; TGI (ACHN renal): > 100 µM; TGI (BT-549 breast): > 100 µM; TGI (CAKI-1 renal): > 100 µM; TGI (CCRF-CEM leukemia): > 100 µM; TGI (COLO 205 colon): > 100 µM; TGI (DU-145 prostate): > 100 µM; TGI (EKVX NSCLC): > 100 µM; TGI (HCC-2998 colon): > 100 µM; TGI (HCT-116 colon): > 100 µM; TGI (HCT-15 colon): > 100 µM; TGI (HL-60(TB) leukemia): > 100 µM; TGI (HOP-62 NSCLC): > 100 µM; TGI (HOP-92 NSCLC): > 100 µM; TGI (HS 578T breast): > 100 µM; TGI (HT29 colon): > 100 µM; TGI (IGROV1 ovarian): > 100 µM; TGI (K-562 leukemia): > 100 µM; TGI (KM12 colon): > 46.4 µM; TGI (LOX IMVI melanoma): > 100 µM; TGI (M14 melanoma): > 100 µM; TGI (MALME-3M melanoma): > 100 µM; TGI (MCF7 breast): > 100 µM; TGI (MDA-MB-231 breast): > 100 µM; TGI (MDA-MB-435): > 100 µM; TGI (MDA-N): > 46.4 µM; TGI (MOLT-4 leukemia): > 100 µM; TGI (NCI-H226 lung): > 100 µM; TGI (NCI-H23 lung): > 100 µM; TGI (NCI-H460 lung): > 100 µM; TGI (NCI-H522 lung): > 100 µM; TGI (NCI/ADR-RES ovarian): > 100 µM; TGI (OVCAR-3 ovarian): > 100 µM; TGI (OVCAR-4 ovarian): > 100 µM; TGI (OVCAR-5 ovarian): > 100 µM; TGI (OVCAR-8 ovarian): > 100 µM; TGI (PC-3 prostate): > 100 µM; TGI (RPMI-8226 leukemia): > 100 µM; TGI (RXF 393 renal): > 100 µM; TGI (SF-268 CNS): > 100 µM; TGI (SF-295 CNS): > 46.4 µM; TGI (SF-539 CNS): > 100 µM; TGI (SK-MEL-2 melanoma): > 100 µM; TGI (SK-MEL-28 melanoma): > 100 µM; TGI (SK-MEL-5 melanoma): > 100 µM; TGI (SK-OV-3 ovarian): > 100 µM; TGI (SN12C renal): > 100 µM; TGI (SNB-19 CNS): > 100 µM; TGI (SNB-75 CNS): > 100 µM; TGI (SR leukemia): > 100 µM; TGI (SW-620 colon): > 100 µM; TGI (T-47D breast): > 100 µM; TGI (TK-10 renal): > 100 µM; TGI (U251 CNS): > 100 µM; TGI (UACC-257 melanoma): > 100 µM; TGI (UACC-62 melanoma): > 100 µM; TGI (UO-31 renal): > 100 µM
